Earlier results, collected in patent US20080299050A1, “TOPICAL THERAPIES FOR ORAL MUCOSITIS AND OTHER CONDITIONS” (DrugTech Corporation, priority 2006, published 2008).

How the values were obtained:
[1] = very large dose applied topically to a pressure ulcer
[2] = test system: human slin fibroblast cultures
[3] = test system: gingiva; details: administered systemically
[4] = test system: gingival wound; details: by mouth for up to 8 weeks prior to gingival excision

Structure (SMILES) | systemic absorption of phenyloin [1] | cell proliferation (enhancing effect) ([2]; higher concentration (25 or 50 μg/ml) or longer incubation time (25 h or 48 h)) | cell proliferation ([2]; low concentration (5 μg/ml) and short incubation time (3 h)) | side effect [3] | gingival wound healing [4]
O=C1NC(=O)C(c2ccccc2)(c2ccccc2)N1 [phenyloin, 5,5-diphenyl-2,4-imidazolidinedione] | little systemic absorption | reduced or reversed | enhanced |  | 
O=C1N=C([O-])NC1(c1ccccc1)c1ccccc1.[Na+] [phenyloin sodium] |  |  |  | gingival hyperplasia | greatly enhanced
